Starred links: 1 amine or outer side, 2 acyl side, 3 side chain; linkers in the order of their positions; H or OH if unused. Non-standard residues stand in square brackets, D forms with d. Residues, ends and D or L forms follow the SMILES beside them. Groups on a side chain read outwards from the residue. *: point of attachment. C20 diacid = O=C(O)CCCCCCCCCCCCCCCCCCC(=O)*; C18 diacid = O=C(O)CCCCCCCCCCCCCCCCC(=O)*; C16 diacid = O=C(O)CCCCCCCCCCCCCCC(=O)*; γGlu = O=C(O)[C@H](CCC(=O)[*:2])N[*:1]; Palmitoyl = CCCCCCCCCCCCCCCC(=O)*; AEEA = NCCOCCOCC(=O)O; Aib = CC(C)(N)C(=O)O
Experiments:
CRF1R receptor = target: T1, CRF1R receptor (Homo sapiens, UniProt P34998); assay: cAMP activity at anti-target CRF1R, CHO-K1 cell line clone 2 (Example 19.10); assay type: cell-based; conditions: CRF1R CHO-K1 clone 2; for Emax: 100% = Sauvagine at 100 nM
T1 construct: host or cells: CHO-K1 clone 2
T1 sequence (P34998 24-415): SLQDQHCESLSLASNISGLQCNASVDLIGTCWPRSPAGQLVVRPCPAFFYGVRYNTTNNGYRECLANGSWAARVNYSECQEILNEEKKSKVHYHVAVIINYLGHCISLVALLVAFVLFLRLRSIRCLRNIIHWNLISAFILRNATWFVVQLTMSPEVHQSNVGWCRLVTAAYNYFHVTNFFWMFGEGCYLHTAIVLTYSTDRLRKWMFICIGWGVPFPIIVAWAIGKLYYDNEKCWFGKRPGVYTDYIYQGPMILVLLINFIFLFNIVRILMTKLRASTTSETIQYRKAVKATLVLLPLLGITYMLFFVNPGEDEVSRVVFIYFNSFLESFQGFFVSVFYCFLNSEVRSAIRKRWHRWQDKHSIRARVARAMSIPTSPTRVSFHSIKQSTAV
Protocol: The CRF1R-overexpression CHO-K1 cell line clone 2 was purchased from PerkinElmer.
Cells were grown in a 10 cm dish at 37° C./5% CO2 in medium (F12 (Hams)/10% FBS/400 μg/ml G418) to near confluence. At that stage, cells were harvested, resuspended to 10 million/mL in culture medium without G418 and with 10% DMSO. 1 mL vial aliquots were slowly frozen to -80° C. in isopropanol and then transferred in liquid nitrogen for storage. These vials were used to run the experiment following the procedure reported 10 in the previous paragraph, except for the compound used in the control well to define the 100% activation (Sauvagine at 100 nM)

human CRF2α receptor = target: T2, human CRF2α receptor (Homo sapiens, UniProt Q13324); assay: cAMP agonism at human CRF2 α receptor in TeloHEAC cells (Example 7); assay type: cell-based; conditions: cAMP HTRF, TeloHEAC cells stably expressing human CRF2 α, 0% HSA; read-out: EC50 [nM], 0% HSA
T2 construct: expressed in transfected cells; host or cells: TeloHEAC
T2 sequence (Q13324 1-411): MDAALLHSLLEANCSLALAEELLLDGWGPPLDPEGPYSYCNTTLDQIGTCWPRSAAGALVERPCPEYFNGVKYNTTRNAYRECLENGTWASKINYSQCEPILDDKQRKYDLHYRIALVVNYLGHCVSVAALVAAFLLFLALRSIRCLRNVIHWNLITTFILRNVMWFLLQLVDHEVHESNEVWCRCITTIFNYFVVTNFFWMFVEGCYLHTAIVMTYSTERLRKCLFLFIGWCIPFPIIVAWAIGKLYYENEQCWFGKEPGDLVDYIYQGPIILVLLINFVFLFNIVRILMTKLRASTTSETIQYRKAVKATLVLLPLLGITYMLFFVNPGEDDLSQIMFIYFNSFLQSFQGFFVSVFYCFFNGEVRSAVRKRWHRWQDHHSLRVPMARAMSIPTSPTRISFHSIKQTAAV
In short: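 Percent activation was referenced to 1000 nM UCN2 (100%), and EC50 values taken as concentrations giving half of maximal response. The read-out was a homogeneous time-resolved fluorescence cAMP kit, fluorescence ratio 665/620 nm. Thawed cells (2000/well) saw compound for 30 min at RT in buffer with 2 mM IBMX and 0%/0.1% HSA.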

Emax (CRF1R receptor) [%] | EC50 (human CRF2α receptor) [nM] | EC50 (CRF1R receptor; 0% HSA, read-out: EC50 [nM] 0% HSA) [nM] | SMILES
6.2 | – | – | CC[C@H](C)[C@H](N)C(=O)N[C@H](C(=O)N[C@@H](CC(C)C)C(=O)N[C@@H](CO)C(=O)N[C@@H](CC(C)C)C(=O)N[C@@H](CC(=O)O)C(=O)N[C@@H](C(=O)N1CCC[C@H]1C(=O)N[C@H](C(=O)N[C@@H](CCCCN)C(=O)N[C@@H](CC(C)C)C(=O)N[C@@H](CCCCNC(=O)CC[C@H](NC(=O)CCCCCCCCCCCCCCC(=O)O)C(=O)O)C(=O)N[C@@H](CCC(N)=O)C(=O)N[C@@H](CCCCN)C(=O)N[C@@H](CC(C)C)C(=O)N[C@@H](CC(C)C)C(=O)N[C@@H](CCCCN)C(=O)N[C@@H](CCC(N)=O)C(=O)N[C@@H](CCC(=O)O)C(=O)N[C@@H](CCCNC(=N)N)C(=O)N[C@@H](CCC(N)=O)C(=O)N[C@@H](CCCNC(=N)N)C(=O)N[C@@H](CCCCN)C(=O)N[C@@H](CCC(=O)O)C(=O)N[C@@H](CCCNC(=N)N)C(=O)N[C@@H](CCC(=O)O)C(=O)N[C@@H](CCC(N)=O)C(=O)N[C@@H](C)C(=O)N[C@@H](CCC(=O)O)C(=O)N[C@@H](CCCCN)C(=O)N[C@@H](CC(N)=O)C(=O)N[C@H](C(=O)N[C@@H](CCCNC(=N)N)C(=O)N[C@H](C(=O)N[C@@H](CC(C)C)C(=O)N[C@@H](CCC(=O)O)C(=O)N[C@@H](CCCNC(=N)N)C(=O)N[C@H](C(N)=O)C(C)C)[C@@H](C)CC)C(C)C)[C@@H](C)O)C(C)C)C(C)C [SEQ ID NO: 222] (H-IVLSLD[dV]PTKLK([γGlu-C16 diacid])QKLLKQERQRKEREQAEKNVRILERV-NH2; N-terminus assumed)
57.3 | – | – | CCCCCCCCCCCCCCCC(=O)N[C@@H](CCC(=O)NCCCC[C@H](NC(=O)[C@H](CC(C)C)NC(=O)[C@H](CCCCN)NC(=O)[C@@H](NC(=O)[C@@H]1CCCN1C(=O)[C@H](NC(=O)[C@H](CC(=O)O)NC(=O)[C@H](CC(C)C)NC(=O)[C@H](CO)NC(=O)[C@H](CC(C)C)NC(=O)[C@@H](NC(=O)[C@@H](N)[C@@H](C)CC)C(C)C)C(C)C)[C@@H](C)O)C(=O)N[C@@H](CCC(N)=O)C(=O)N[C@@H](CCCCN)C(=O)N[C@@H](CC(C)C)C(=O)N[C@@H](CC(C)C)C(=O)N[C@@H](CCCCN)C(=O)N[C@@H](CCC(N)=O)C(=O)N[C@@H](CCC(=O)O)C(=O)N[C@@H](CCCNC(=N)N)C(=O)N[C@@H](CCC(N)=O)C(=O)N[C@@H](CCCNC(=N)N)C(=O)N[C@@H](CCCCN)C(=O)N[C@@H](CCC(=O)O)C(=O)N[C@@H](CCCNC(=N)N)C(=O)N[C@@H](CCC(=O)O)C(=O)N[C@@H](CCC(N)=O)C(=O)N[C@@H](C)C(=O)N[C@@H](CCC(=O)O)C(=O)N[C@@H](CCCCN)C(=O)N[C@@H](CC(N)=O)C(=O)N[C@@H](CCCCN)C(=O)N[C@@H](CCCNC(=N)N)C(=O)N[C@H](C(=O)N[C@@H](CC(C)C)C(=O)N[C@@H](CCC(=O)O)C(=O)N[C@@H](CCCNC(=N)N)C(=O)N[C@H](C(N)=O)C(C)C)[C@@H](C)CC)C(=O)O [SEQ ID NO: 223] (H-IVLSLD[dV]PTKLK([γGlu-Palmitoyl])QKLLKQERQRKEREQAEKNKRILERV-NH2; N-terminus assumed)
0.4 | – | – | CC[C@H](C)[C@H](N)C(=O)N[C@H](C(=O)N[C@@H](CC(C)C)C(=O)N[C@@H](CO)C(=O)N[C@@H](CC(C)C)C(=O)N[C@@H](CC(=O)O)C(=O)N[C@H](C(=O)N1CCC[C@H]1C(=O)N[C@H](C(=O)NCC(=O)N[C@@H](CC(C)C)C(=O)N[C@@H](CCCCNC(=O)COCCOCCNC(=O)COCCOCCNC(=O)CC[C@H](NC(=O)CCCCCCCCCCCCCCCCC(=O)O)C(=O)O)C(=O)N[C@@H](CCC(N)=O)C(=O)N[C@@H](CCCCN)C(=O)N[C@@H](CC(C)C)C(=O)N[C@@H](CC(C)C)C(=O)N[C@@H](CCCCN)C(=O)N[C@@H](CCC(N)=O)C(=O)N[C@@H](CCC(N)=O)C(=O)N[C@@H](CCCNC(=N)N)C(=O)N[C@@H](CCC(N)=O)C(=O)N[C@@H](CCCNC(=N)N)C(=O)N[C@@H](CCCCN)C(=O)N[C@@H](CCC(=O)O)C(=O)N[C@@H](CCCNC(=N)N)C(=O)N[C@@H](CCC(N)=O)C(=O)N[C@@H](CCC(N)=O)C(=O)N[C@@H](C)C(=O)N[C@@H](CCC(=O)O)C(=O)N[C@@H](CCCCN)C(=O)N[C@@H](CC(N)=O)C(=O)N[C@@H](C)C(=O)N[C@@H](CCCNC(=N)N)C(=O)N[C@H](C(=O)N[C@@H](CC(C)C)C(=O)N[C@@H](C)C(=O)N[C@@H](CCCNC(=N)N)C(=O)N[C@H](C(N)=O)C(C)C)[C@@H](C)CC)[C@@H](C)CC)C(C)C)C(C)C [compound 16] (H-IVLSLDVPIGLK([AEEA-AEEA-γGlu-C18 diacid])QKLLKQQRQRKERQQAEKNARILARV-NH2)

Second part, the compound before the results:

SMILES | Emax (CRF1R receptor) [%] | EC50 (human CRF2α receptor) [nM] | EC50 (CRF1R receptor; 0% HSA, read-out: EC50 [nM] 0% HSA) [nM]
CC[C@H](C)[C@H](N)C(=O)N[C@H](C(=O)N[C@@H](CC(C)C)C(=O)N[C@@H](CO)C(=O)N[C@@H](CC(C)C)C(=O)N[C@@H](CC(=O)O)C(=O)N[C@@H](C(=O)N1CCC[C@H]1C(=O)N[C@H](C(=O)N[C@@H](CCCCN)C(=O)N[C@@H](CC(C)C)C(=O)N[C@@H](CCCCNC(=O)COCCOCCNC(=O)COCCOCCNC(=O)CC[C@H](NC(=O)CCCCCCCCCCCCCCCCCCC(=O)O)C(=O)O)C(=O)N[C@@H](CCCCN)C(=O)N[C@@H](CCCCN)C(=O)N[C@@H](CC(C)C)C(=O)N[C@@H](CC(C)C)C(=O)N[C@@H](CCCCN)C(=O)N[C@@H](CCC(N)=O)C(=O)N[C@@H](CCC(=O)O)C(=O)N[C@@H](CCCNC(=N)N)C(=O)N[C@@H](CCCCN)C(=O)N[C@@H](CCCNC(=N)N)C(=O)NC(C)(C)C(=O)N[C@@H](CCC(=O)O)C(=O)N[C@@H](CCCNC(=N)N)C(=O)N[C@@H](CCC(=O)O)C(=O)N[C@@H](CCCCN)C(=O)N[C@@H](C)C(=O)N[C@@H](CCC(=O)O)C(=O)N[C@@H](CCCCN)C(=O)N[C@@H](C)C(=O)N[C@@H](C)C(=O)N[C@@H](CCCNC(=N)N)C(=O)N[C@H](C(=O)N[C@@H](CC(C)C)C(=O)N[C@@H](CCC(=O)O)C(=O)N[C@@H](CCCNC(=N)N)C(=O)N[C@H](C(N)=O)C(C)C)[C@@H](C)CC)[C@@H](C)O)C(C)C)C(C)C [SEQ ID NO: 224, IVLSLDvPTKLK*KKLLKQERKRAibEREKAEKAARILERV-NH2] (H-IVLSLD[dV]PTKLK([AEEA-AEEA-γGlu-C20 diacid])KKLLKQERKR[Aib]EREKAEKAARILERV-NH2; N-terminus assumed) | 52.6 | – | –
CC[C@H](C)[C@H](N)C(=O)N[C@H](C(=O)N[C@@H](CC(C)C)C(=O)N[C@@H](CO)C(=O)N[C@@H](CC(C)C)C(=O)N[C@@H](CC(=O)O)C(=O)N[C@H](C(=O)N1CCC[C@H]1C(=O)N[C@H](C(=O)N[C@@H](CCCCN)C(=O)N[C@@H](CC(C)C)C(=O)N[C@@H](CCCCNC(=O)COCCOCCNC(=O)COCCOCCNC(=O)CC[C@H](NC(=O)CCCCCCCCCCCCCCCCC(=O)O)C(=O)O)C(=O)N[C@@H](CCC(N)=O)C(=O)N[C@H](C(=O)N[C@@H](CC(C)C)C(=O)N[C@@H](CC(C)C)C(=O)N[C@@H](CCCCN)C(=O)N[C@@H](CCC(N)=O)C(=O)N[C@@H](CCC(=O)O)C(=O)N[C@@H](CCCNC(=N)N)C(=O)N[C@@H](CCC(N)=O)C(=O)N[C@@H](CCCCN)C(=O)NC(C)(C)C(=O)N[C@@H](CCC(N)=O)C(=O)N[C@@H](CCCNC(=N)N)C(=O)N[C@@H](CCC(N)=O)C(=O)N[C@@H](CCCCN)C(=O)N[C@@H](C)C(=O)N[C@@H](CCC(=O)O)C(=O)N[C@@H](CCCCN)C(=O)N[C@@H](CC(N)=O)C(=O)N[C@@H](CCCCN)C(=O)N[C@@H](CCC(N)=O)C(=O)N[C@H](C(=O)N[C@@H](CC(C)C)C(=O)N[C@@H](C)C(=O)N[C@@H](CCC(N)=O)C(=O)N[C@H](C(N)=O)C(C)C)[C@@H](C)CC)[C@@H](C)CC)[C@@H](C)CC)C(C)C)C(C)C [compound 22] (H-IVLSLDVPIKLK([AEEA-AEEA-γGlu-C18 diacid])QILLKQERQK[Aib]QRQKAEKNKQILAQV-NH2) | 1.2 | 0.12 | > 100
